# Reference: article PMC11726016 (Cancer Discovery, 2024)
# Key:
# [1] = test system: endogenous MTAP WT and MTAP-deleted cancer cell lines; assay: Viability in a panel of endogenous MTAP WT and MTAP-deleted cancer cells; assay type: cell-based, human; details: 6 days
# DOHH-2 tumors = assay: DOHH-2 tumor study, AM-9747 vs LLY-283; assay type: in vivo, mouse; details: LLY-283 30 mg/kg, AM-9747 100 mg/kg PO QD
# [2] = test system: bone marrow progenitors and circulating blood cells; assay: Bone marrow progenitor populations and circulating blood cells; assay type: in vivo, mouse; details: DOHH-2 study; LLY-283 30 mg/kg, AM-9747 100 mg/kg PO QD
# [3] = test system: SDMA and γH2AX in bone marrow, blood and DOHH-2 tumor; assay: Pharmacodynamics and MOA in vivo assay; details: DOHH-2 study, Day 11; LLY-283 30 mg/kg, AM-9747 100 mg/kg PO QD
structure (smiles),measurement,setting,value
Nc1ncnc2c1ccn2[C@@H]1O[C@H]([C@H](O)c2ccccc2)[C@@H](O)[C@H]1O [LLY-283],relation of MTAP status to sensitivity in the cell panel,[1],MTAP status did not track closely with sensitivity
same,tumor-free mice,DOHH-2 tumors,2/10
same,"circulating blood cells (RBC, reticulocytes, platelets)",[2],"highly substantial reductions in red blood cells (RBC), reticulocytes, and platelets"
same,megakaryocytic and erythroid progenitors (MEP) population in bone marrow,[2],substantial reduction
same,Blood SDMA decrease,[3],79%
same,Bone marrow SDMA decrease,[3],71%
same,Tumor SDMA decrease,[3],21%
